Reference: patent US20220280501A1, “USING GENO- OR P[…] ADJUST LSD DOSING” (Universitätsspital Basel, priority 2021, published 2022)
Entries after “also recorded” stand apart in the source; their conditions may differ. Like-named read-outs stand apart in the source and are kept apart here.

Experiments:
[1] = Pharmacokinetics of LSD by CYP genotype, pooled analysis of four phase 1 studies; settings: for Cmax: human, oral, 100 ug, LSD Cmax, compartmental modeling, 100 μg LSD dose, mean±SD
[2] = human, Dolder et al., 2015; cited from earlier work
[3] = system: cytochrome P450 enzymes (CYPs); settings: human liver S9 fraction; cited from earlier work
[4] = cited from earlier work; for subjects with bad drug effects (50% or more on a 0-100% scale at any time point): Dolder et al., 2017a
[5] = Autonomic (physiological) effects of LSD, pooled phase 1 studies; format: in vivo, humans
Procedure: Blood pressure, heart rate, and body temperature were assessed repeatedly before and 0, 0.5, 1, 1.5, 2, 2.5, 3, 4, 5, 6, 7, 8, 9, and 10 h after LSD or placebo administration. Systolic and diastolic blood pressure and heart rate were measured using an automatic oscillometric device (OMRON Healthcare Europe NA, Hoofddorp, Netherlands). The measurements were performed in duplicate at an interval of 1 minute and after a resting time of at least 5 minutes. The averages were calculated for the analysis. Mean arterial pressure (MAP) was calculated as diastolic blood pressure+(systolic blood pressure−diastolic blood pressure)/3. The rate pressure product (RPP) was calculated as systolic blood pressure×heart rate. Core (tympanic) temperature was measured using a Genius 2 ear thermometer (Tyco Healthcare Group LP, Watertown, N.Y., USA).

[6] = cited from earlier work; for duration of LSD effects (mean±SD) / duration of LSD effects (range): Dolder et al., 2017b
[7] = Acute subjective effects of LSD (VAS, 5D-ASC) by genotype, pooled phase 1 studies; format: in vivo, humans
Procedure: The Visual Analog Scales (VASs, FIG. 14, Table S5) were presented as 100 mm horizontal lines (0-100%), marked from “not at all” on the left to “extremely” on the right. Subjective effects like “closeness”, “talkative”, “open”, “concentration”, “speed of thinking”, and “trust” were bidirectional (±50 mm). The VASs were applied before and 0, 0.5, 1, 1.5, 2, 2.5, 3, 4, 5, 6, 7, 8, 9 and 10 h after LSD or placebo administration.
The 5 Dimensions of Altered States of Consciousness (5D-ASC) scale (Dittrich, 1998; Studerus et al., 2010) was administered at the end of the acute drug effects to retrospectively rate peak drug responses. The main subscales describing alterations of consciousness are Oceanic Boundlessness (OB), Anxious of Ego Dissolution (AED), Visionary Restructuralization (VR) (FIG. 16).

[8] = Holze et al., 2021b; cited from earlier work
[9] = system: cytochrome P450 enzymes (CYPs); settings: human liver microsomes; cited from earlier work
[10] = non-functional vs functional CYP2D6
[11] = non-compartmental analysis, plasma

Structure (SMILES): CCN(CC)C(=O)[C@@H]1C=C2c3cccc4c3C(O)(C[C@H]2N(C)C1)C(=O)N4 (stereo partly drawn) [O-H-LSD, 2-oxo-3-hydroxy LSD]
- AUC∞ values, CYP2D6 PMs compared with functional CYP2D6 subjects ([1]; metabolite in plasma after LSD administration): larger
- area under the curve blood plasma concentration (total drug exposure), higher in CYP2D6 poor metabolizers than in functional CYP2D6 carriers [1, 10]: approximately 75%

Structure (SMILES): CCN(CC)C(=O)[C@@H]1C=C2c3cccc4[nH]cc(c34)C[C@H]2N(C)C1 [LSD, Lysergic acid diethylamide]
- parent drug excreted in urine [2]: ~1%
- CYPs contributing to the hydroxylation of LSD [3]: CYP1A2 and CYP3A4
- CYPs involved in the formation of Nor-LSD [3]: CYP2C19 and 3A4
- effect of genetic polymorphisms of other CYPs on pharmacokinetics or subjective or autonomic effects ([1]; CYP1A2, CYP2B6, CYP2C19, CYP2C9): no relevant effect
- exposure to LSD with lower CYP2D6 activity across all CYP2D6 genotype activity score groups ([1]; CYP2D6 activity score groups): significantly higher exposure
- effect of sex or body weight on pharmacokinetics / concentration of LSD in plasma ([1]; LSD AUC∞ z-score vs body weight): no relevant effect; also recorded: did not relevantly alter
- Cmax ([1]; plasma, CYP2D6 PMs (non-functional, N=7)): 2.37 ± 0.891 ng/mL
- Cmax ([1]; plasma, functional CYP2D6 subjects (N=74)): 2.06 ± 0.999 ng/mL
- AUC∞ and AUC10 values, CYP2D6 PMs compared with functional CYP2D6 carriers [1, 11]: significantly larger
- Cmax, effect of CYP2D6 function [1, 11]: not significantly affected
- area under the curve blood plasma concentration (total drug exposure), higher in CYP2D6 poor metabolizers than in functional CYP2D6 carriers [1, 10]: approximately 75%
- half-life (T1/2), CYP2D6 PMs compared with functional CYP2D6 subjects [1, 10]: longer
- mean peak concentration, higher in CYP2D6 PMs than in functional CYP2D6 ([1]; non-functional vs functional CYP2D6, non-significant): approximately 15%
- subjects with bad drug effects (50% or more on a 0-100% scale at any time point) ([4]; 100 μg, 3 of 24 subjects): 12.5%
- subjects with transient bad drug effects ([4]; 100 μg, 7 of 24 subjects, Holze et al., 2019a): 29%
- subjects with bad drug effects (50% or more on a 0-100% scale at any time point) ([4]; 200 μg, 9 of 16 subjects): 56%
- subjects with marked anxiety ([4]; 200 μg, sixteen healthy humans, Schmid et al., 2015): two
- vital parameters, effect of 5-HT receptor genotypes ([5]; HTR1A, HTR1B, HTR2A genotypes): not affected
- blood pressure, heart rate, and body temperature compared to placebo ([5]; healthy subjects): moderately increased
- effect of CYP2D6 genotype on the autonomic response ([5]; in vivo): no relevant effect
- duration of LSD effects (mean±SD) ([6]; 100 μg): 8.2 ± 2.1 h
- duration of LSD effects (range) ([6]; 100 μg): 5 to 14 h
- duration of subjective effects (mean±SD) ([6]; 100 μg, Holze et al., 2019): 8.5 ± 2.0 h
- duration of subjective effects (range) ([6]; 100 μg, Holze et al., 2019): 5.3 to 12.8 h
- duration of LSD effects (mean±SD) ([6]; 200 μg): 11.6 ± 1.7 h
- duration of LSD effects (range) ([6]; 200 μg): 7 to 19.5 h
- alterations of the mind (5D-ASC total, AED and VR subscales), CYP2D6 PMs compared with functional CYP2D6 subjects ([7]; 5D-ASC): significantly greater alterations of the mind
- 5D-ASC total score and VR subscale, homozygous carriers of HTR1A rs6295 G allele vs carriers of a C allele ([7]; HTR1A rs6295): rated lower; also recorded: lower total 5D-ASC, Visionary Restructuralization, and Blissful State ratings
- 5D-ASC total score and AED subscale, carriers of two HTR2A rs6313 A alleles vs G allele carriers ([7]; HTR2A rs6313): lower ratings; also recorded: lower alterations of the mind
- duration of the acute subjective response, CYP2D6 PMs compared with functional CYP2D6 subjects ([7]; VAS any drug effect): substantially longer duration; also recorded: longer subjective effect durations
- acute subjective effects compared to placebo ([7]; healthy subjects): significant acute subjective effects on all scales
- 5D-ASC OB, AED and anxiety ratings, 200 μg compared to 100 μg [8]: did not result in higher OB ratings but increased AED and anxiety
- CYPs contributing to the N-demethylation of LSD to 6-nor-LSD (Nor-LSD) [9]: CYP2D6, 3A4, and 2E1
- CYPs taking part in the formation of the main metabolite 2-oxo-3-hydroxy-LSD (O-H-LSD) [9]: CYP2C9, CYP1A2, CYP2E1, and CYP3A4
